Results on eight compounds are retold here after ChEMBL document CHEMBL1122128, “Quinazolines and 1,4-benzodiazepines. 90. Structure-activity relationship between substituted 2-amino-N-(2-benzoyl-4-chlorophenyl)acetamides and 1,4-benzodiazepinones” (J Med Chem, 1982).

For series [1], the target named is GABA-A receptor; anion channel. As to the kind of experiment: In vitro displacement of [3H]-diazepam from GABA-A Benzodiazepine receptor. It counts as protein-complex assay.
In a further series the test system is Mus musculus. As to the kind of experiment: Dose that prevents convulsions in 50% of the CF1 male mice tested after administration of 70 mg/kg of metrazole by intravenous route. It counts as functional.
Series [2] can be described thus: Lethal dose was determined after intraperitoneal administration in mice. The series is classed as toxicity, organism-based. Particulars: mouse, in vivo, ip.

Structures are written as SMILES. Where only a bound is given, the exact number is not on record here.

Consider `Cl.NCC(=O)Nc1ccc(Cl)cc1C(=O)c1c(Cl)cccc1Cl`, for which, in series [1], the IC50 worked out at 1000 nM. Further, in the series on Mus musculus, the ED50 is more than 400 mg/kg.

In series [1], `CN(C(=O)CN)c1ccc(Cl)cc1C(=O)c1c(Cl)cccc1Cl.Cl` registered an IC50 of 930 nM. Besides, the ED50 in the series with Mus musculus is more than 200 mg/kg. In series [2], the LD50 is 245 mg/kg.

As for `NCC(=O)Nc1ccc(Cl)cc1C(=O)c1ccccc1Cl`, the IC50 in series [1] came out at 4.8 nM. The compound also came in with an ED50 with Mus musculus of 3.8 mg/kg.

In series [1], `CN1C(=O)CN=C(c2c(Cl)cccc2Cl)c2cc(Cl)ccc21` registered an IC50 of 7 nM. In addition, in the series on Mus musculus, the 50% effect level (ED50) was put at a dose of 18.9 mg/kg.

In the case of `CN(C(=O)CN)c1ccc(Cl)cc1C(=O)c1ccccc1`, the IC50 in series [1] came out at 9.9 nM. Moreover, the ED50 with Mus musculus worked out at 1 mg/kg.

`O=C1CN=C(c2ccccc2Cl)c2cc(Cl)ccc2N1` [DELORAZEPAM] displayed an IC50 in series [1] of 2.8 nM. Besides, the 50% effect level in the series with Mus musculus (ED50) was put at a dose of 0.26 mg/kg.

`CN1C(=O)CN=C(c2ccccc2)c2cc(Cl)ccc21` [DIAZEPAM] displayed an ED50 with Mus musculus of 1.2 mg/kg.

`O=C1CN=C(c2c(Cl)cccc2Cl)c2cc(Cl)ccc2N1` [RO-223294] returned an IC50 in series [1] of 5.5 nM. In the series on Mus musculus, this compound came in with an ED50 of 6 mg/kg.

What is called IC50 is the concentration at which inhibition is half-maximal. As usually defined, the ED50 is the midpoint of the dose-response relation. Read a high ED50 as a need for a large dose. Usually LD50 stands for the dose expected to kill half of the subjects tested.
